Experimental findings from US20220107317A1, “COMPOSITIONS AND METHODS FOR DIAGNOSING AND TREATING CORONAVIRUS DISEASE 2019” (priority 2020, published 2022) are described below.

For the assay, the target named is SARS-CoV-2 spike protein RBD (Severe acute respiratory syndrome coronavirus 2, UniProt P0DTC2). The conditions noted are these: spike protein RBD and dimer of spike protein RBD, FIG. 4.

“DLSGFVRPDPVIISSPLSTFFSDAGYKSLLKITMTQSTVPLNLIRVHLMVAVEG HLFQKSFQASPNLAYTFIWDKTDAYGQRVYGLSDAVVSVGFEYETCPSLILW EKRTALLQGFELD [T2 peptide]”: the “binding in Western blot” value was “binding between T2 peptide to both spike protein RBD and the dimer of spike protein RBD”.
